Patent publication US9346761B2, “Arginine methyltransferase inhibitors and uses thereof” (Epizyme, Inc., priority 2013, dated 2016)

Columns and labels:
Full-length human PRMT3 = molecular target: T1, Full-length human PRMT3 (Homo sapiens, UniProt O60678); test: PRMT3 biochemical assay (3H-SAM Flashplate, peptide substrate)
T1 construct: GST-tagged PRMT3; made in house; host or cells: E. coli BL21(DE3) Gold (pGEX-KG)
Excerpt: General Materials. S-adenosylmethionine (SAM), S-adenosylhomocysteine (SAH), bicine, Tween20, dimethylsulfoxide (DMSO), bovine skin gelatin (BSG),), isopropyl-β-D-thiogalactopyranoside (IPTG), and Tris(2-carboxyethyl)phosphine hydrochloride solution (TCEP) were purchased from Sigma-Aldrich at the highest level of purity possible. ^3H-SAM was purchase from American Radiolabeled Chemicals with a specific activity of 80 Ci/mmol. 384-well streptavidin Flashplates were purchased from PerkinElmer.
Substrates. Peptide containing the classic RMT substrate motif was synthesized with an N-terminal linker-affinity tag motif and a C-terminal amide cap by 21st Century Biochemicals. The peptide was purified by high-performance liquid chromatography (HPLC) to greater than 95% purity and confirmed by liquid chromatography mass spectrometry (LC-MS). The sequence was Biot-Ahx-[…]-amide (SEQ ID NO.:11).
Molecular Biology: : Full-length human PRMT3 (NM_005788.3) isoform 1 transcript clone was amplified from an HEK 293 cDNA library and subcloned into pGEX-KG (GE Life Sciences). The resulting construct encodes an N-terminal GST tag and a thrombin cleavage sequence ([…] […] […] […]) (SEQ ID NO.:12) fused directly to Cys 2 of PRMT3.
Protein Expression. E. coli (BL21(DE3) Gold, Stratagene) made competent by the CaCl2 method were transformed with the PRMT3 construct and ampicillin selection. Protein over-expression was accomplished by growing the PRMT3 expressing E. coli clone and inducing expression with 0.3 mM IPTG at 16° C. The culture was grown for 12 hours, harvested by centrifugation, and stored at −80° C. for purification.
Protein Purification. […] GST-tagged PRMT3 eluted with 25-400 mM phosphate in buffer C. Protein was concentrated and buffer was exchanged to 20 mM Tris, 150 mM NaCl, 5% glycerol, 5 mM β-mercaptoethanol, pH7.8 by ultrafiltration. The purity of recovered protein was 70%.
General Procedure for PRMT3 Enzyme Assays on Peptide Substrates. The assays were all performed in a buffer consisting of 20 mM Bicine (pH=7.6), 1 mM TCEP, 0.005% BSG, and 0.002% Tween 20, prepared on the day of use. Compounds in 100% DMSO (1 ul) were spotted into a polypropylene 384-well V-bottom plates (Greiner) using a Platemate Plus outfitted with a 384-channel head (Thermo Scientific). DMSO (1 ul) was added to Columns 11, 12, 23, 24, rows A-H for the maximum signal control and 1 ul of SAH, a known product and inhibitor of PRMT3, was added to columns 11, 12, 23, 24, rows I-P for the minimum signal control. A cocktail (40 ul) containing the PRMT3 enzyme was added by Multidrop Combi (Thermo-Fisher). The compounds were allowed to incubate with PRMT3 for 30 min at room temperature, then a cocktail (10 ul) containing SAM and peptide was added to initiate the reaction (final volume=51 ul). The final concentrations of the components were as follows: PRMT3 was 0.5 nM, ^3H-SAM was 100 nM, non-radiolabeled SAM was 1.8 uM, peptide was 330 nM, SAH in the minimum signal control wells was 1 mM, and the DMSO concentration was 2%. The assays were stopped by the addition of potassium chloride (10 ul) to a final concentration of 100 mM. 50 ul of the reaction in the 384-well polypropylene plate was then transferred to a 384-well Flashplate and the biotinylated peptides were allowed to bind to the streptavidin surface for at least 1 hour before being washed once with 0.1% Tween20 in a Biotek ELx405 plate washer. The plates were then read in a PerkinElmer TopCount plate reader to measure the quantity of ^3H-labeled peptide bound to the Flashplate surface, measured as disintegrations per minute (dpm) or alternatively, referred to as counts per minute (cpm).
Where dpm=disintegrations per minute, cmpd=signal in assay well, and min and max are the respective minimum and maximum signal controls.
Where top and bottom are the normally allowed to float, but may be fixed at 100 or 0 respectively in a 3-parameter fit. […]

[1] = tested on: mono-methyl arginine in RKO cells; test: RKO methylation assay, In Cell Western for mono-methyl arginine and DNA content; format: cell-based; conditions: Homo sapiens; In Cell Western, RKO cells, 72 hours, percent activation of mono-methyl arginine signal; read-out: EC30

T1 sequence (O60678 with tags, fused parts or gaps): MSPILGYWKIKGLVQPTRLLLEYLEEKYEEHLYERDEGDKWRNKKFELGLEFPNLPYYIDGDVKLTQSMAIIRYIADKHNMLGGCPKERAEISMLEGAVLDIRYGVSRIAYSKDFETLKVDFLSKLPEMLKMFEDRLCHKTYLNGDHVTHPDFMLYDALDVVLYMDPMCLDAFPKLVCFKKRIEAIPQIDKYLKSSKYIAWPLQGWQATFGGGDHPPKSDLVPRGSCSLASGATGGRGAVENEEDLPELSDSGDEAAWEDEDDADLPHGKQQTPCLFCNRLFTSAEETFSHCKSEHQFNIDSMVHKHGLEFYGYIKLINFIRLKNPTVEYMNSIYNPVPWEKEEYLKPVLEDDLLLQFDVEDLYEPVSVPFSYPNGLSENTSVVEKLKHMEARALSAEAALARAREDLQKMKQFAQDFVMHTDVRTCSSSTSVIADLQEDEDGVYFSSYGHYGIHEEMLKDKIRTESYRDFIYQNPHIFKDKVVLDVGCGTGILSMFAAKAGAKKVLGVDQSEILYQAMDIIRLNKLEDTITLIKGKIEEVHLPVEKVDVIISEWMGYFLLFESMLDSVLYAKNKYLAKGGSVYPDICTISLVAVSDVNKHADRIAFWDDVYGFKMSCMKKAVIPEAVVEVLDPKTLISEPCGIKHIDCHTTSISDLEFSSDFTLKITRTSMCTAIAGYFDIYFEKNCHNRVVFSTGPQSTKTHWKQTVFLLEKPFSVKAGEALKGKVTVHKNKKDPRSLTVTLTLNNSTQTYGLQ

| Structure (SMILES) | IC50 (Full-length human PRMT3) [µM] | EC30 [1] [µM] |
| --- | --- | --- |
| CCOC(=O)c1cccc(-c2n[nH]cc2CN(C)CCN)c1 [Compound 150] | > 10 | 3.01 to 12 |
| COc1cc(F)ccc1-c1n[nH]cc1CN(C)CCN [Compound 151] | > 10 | 3.01 to 12 |
| Cc1cc(F)ccc1-c1n[nH]cc1CN(C)CCN [Compound 152] | 3.01 to 10 | 3.01 to 12 |
| COc1ccc(-c2n[nH]cc2CN(C)CCN)cc1 [Compound 153] | 3.01 to 10 | < 3 |
| COc1ccc(-c2n[nH]cc2CN(C)CCN)c(C(F)(F)F)c1 [Compound 154] | > 10 | > 12 |
| COc1ccc(-c2n[nH]cc2CN(C)CCN)c(C)c1 [Compound 155] | 3.01 to 10 | 3.01 to 12 |
| CN(CCN)Cc1c[nH]nc1-c1cc(Cl)ccc1F [Compound 156] | > 10 | 3.01 to 12 |
| COc1ccc(Cl)cc1-c1n[nH]cc1CN(C)CCN [Compound 157] | > 10 | > 12 |
| Cc1ccc(C#N)cc1-c1n[nH]cc1CN(C)CCN [Compound 158] | > 10 | > 12 |
| Cc1ccc(F)cc1-c1n[nH]cc1CN(C)CCN [Compound 159] | > 10 | 3.01 to 12 |
| COc1ccc(F)cc1-c1n[nH]cc1CN(C)CCN [Compound 160] | > 10 | > 12 |
| Cc1ccccc1-c1n[nH]cc1CN(C)CCN [Compound 161] | > 10 | > 12 |
| Cc1ccc(-c2n[nH]cc2CN(C)CCN)cc1 [Compound 162] | 3.01 to 10 | < 3 |
| CCN(C)C(=O)c1ccc(-c2n[nH]cc2CN(C)CCN)cc1 [Compound 163] | > 10 | > 12 |
| CC(C)CN(C)C(=O)c1ccc(-c2n[nH]cc2CN(C)CCN)cc1 [Compound 164] | > 10 | > 12 |
| CCOc1ccc(-c2n[nH]cc2CN(C)CCN)cc1 [Compound 166] | 3.01 to 10 | < 3 |
| COCCOc1ccc(-c2n[nH]cc2CN(C)CCN)cc1 [Compound 167] | 3.01 to 10 | < 3 |
| Cc1[nH]nc(-c2ccc(F)cc2)c1CN(C)CCN [Compound 169] | > 10 | > 12 |
| CC(C)Cc1ccc(-c2c[nH]nc2CN(C)CCN)cc1 [Compound 170] | 3.01 to 10 | < 3 |
| NCCN(CCO)Cc1c[nH]nc1-c1ccc(F)cc1 [Compound 171] | > 10 | > 12 |
| CN(CCN)Cc1c[nH]nc1-c1ccc(OCCN2CCOCC2)cc1 [Compound 172] | 3.01 to 10 | > 12 |
